According to the NIST ThermoML archive (doi:10.1016/j.jct.2018.05.012):
Numbers after ± are expanded uncertainties.

Assay: xn = mol fraction of the nth substance listed
Settings: 100 kPa, Liquid; for speed of sound: Frequency=3 MHz, Single path-length method; for mass density: Vibrating tube method

C1COCO1 [1,3-dioxolane] + C1COCCO1
Settings | mass density, 293.15 K [kg/m3] | mass density, 298.15 K [kg/m3] | mass density, 303.15 K [kg/m3] | mass density, 308.15 K [kg/m3] | speed of sound, 293.15 K [m/s] | speed of sound, 298.15 K [m/s] | speed of sound, 303.15 K [m/s] | speed of sound, 308.15 K [m/s]
x1 = 0.1184 | 1036.5 ± 1 | 1030.8 ± 1 | 1025.1 ± 1 | 1019.3 ± 1 | 1367 ± 1.4 | 1345.1 ± 1.4 | 1323.5 ± 1.4 | 1301.6 ± 1.4
x1 = 0.1694 | 1037.8 ± 1 | 1032.1 ± 1 | 1026.4 ± 1 | 1020.6 ± 1 | 1366.7 ± 1.4 | 1344.8 ± 1.4 | 1323.1 ± 1.4 | 1301.2 ± 1.4
x1 = 0.2145 | 1039 ± 1 | 1033.3 ± 1 | 1027.5 ± 1 | 1021.7 ± 1 | 1366.4 ± 1.4 | 1344.5 ± 1.4 | 1322.8 ± 1.4 | 1300.8 ± 1.4
x1 = 0.2632 | 1040.4 ± 1 | 1034.6 ± 1 | 1028.8 ± 1 | 1022.9 ± 1 | 1366.1 ± 1.4 | 1344.1 ± 1.4 | 1322.4 ± 1.4 | 1300.5 ± 1.4
x1 = 0.3154 | 1041.8 ± 1 | 1036.1 ± 1 | 1030.2 ± 1 | 1024.3 ± 1 | 1365.8 ± 1.4 | 1343.8 ± 1.4 | 1322.1 ± 1.4 | 1300.1 ± 1.4
x1 = 0.3689 | 1043.3 ± 1 | 1037.6 ± 1 | 1031.7 ± 1 | 1025.8 ± 1 | 1365.5 ± 1.4 | 1343.5 ± 1.4 | 1321.7 ± 1.4 | 1299.7 ± 1.4
x1 = 0.4184 | 1044.8 ± 1 | 1039 ± 1 | 1033.1 ± 1 | 1027.2 ± 1 | 1365.2 ± 1.4 | 1343.1 ± 1.4 | 1321.3 ± 1.4 | 1299.4 ± 1.4
x1 = 0.4697 | 1046.3 ± 1 | 1040.5 ± 1 | 1034.6 ± 1 | 1028.6 ± 1 | 1364.9 ± 1.4 | 1342.8 ± 1.4 | 1321 ± 1.4 | 1299 ± 1.4
x1 = 0.5124 | 1047.6 ± 1 | 1041.8 ± 1 | 1035.8 ± 1 | 1029.9 ± 1 | 1364.6 ± 1.4 | 1342.5 ± 1.4 | 1320.7 ± 1.4 | 1298.7 ± 1.4
x1 = 0.5674 | 1049.4 ± 1 | 1043.6 ± 1 | 1037.5 ± 1 | 1031.5 ± 1 | 1364.3 ± 1.4 | 1342.1 ± 1.4 | 1320.3 ± 1.4 | 1298.3 ± 1.4
x1 = 0.6282 | 1051.4 ± 1 | 1045.5 ± 1 | 1039.5 ± 1 | 1033.4 ± 1 | 1363.9 ± 1.4 | 1341.7 ± 1.4 | 1319.8 ± 1.4 | 1297.9 ± 1.4
x1 = 0.6734 | 1052.9 ± 1 | 1047 ± 1 | 1040.9 ± 1 | 1034.8 ± 1 | 1363.6 ± 1.4 | 1341.4 ± 1.4 | 1319.5 ± 1.4 | 1297.5 ± 1.4
x1 = 0.7231 | 1054.6 ± 1 | 1048.7 ± 1 | 1042.6 ± 1 | 1036.5 ± 1 | 1363.3 ± 1.4 | 1341 ± 1.4 | 1319.1 ± 1.4 | 1297.1 ± 1.4
x1 = 0.7626 | 1055.9 ± 1 | 1050.1 ± 1 | 1043.9 ± 1 | 1037.8 ± 1 | 1363 ± 1.4 | 1340.7 ± 1.4 | 1318.8 ± 1.4 | 1296.8 ± 1.4
x1 = 0.7992 | 1057.2 ± 1 | 1051.4 ± 1 | 1045.2 ± 1 | 1039 ± 1 | 1362.7 ± 1.4 | 1340.4 ± 1.4 | 1318.5 ± 1.4 | 1296.5 ± 1.4
x1 = 0.8486 | 1059 ± 1 | 1053.1 ± 1 | 1046.9 ± 1 | 1040.7 ± 1 | 1362.4 ± 1.4 | 1340 ± 1.4 | 1318.1 ± 1.4 | 1296.1 ± 1.4
x1 = 0.8815 | 1060.2 ± 1 | 1054.3 ± 1 | 1048.1 ± 1 | 1041.9 ± 1 | 1362.1 ± 1.4 | 1339.8 ± 1.4 | 1317.8 ± 1.4 | 1295.8 ± 1.4
x1 = 0.9102 | 1061.3 ± 1 | 1055.4 ± 1 | 1049.1 ± 1 | 1042.9 ± 1 | 1361.9 ± 1.4 | 1339.5 ± 1.4 | 1317.5 ± 1.4 | 1295.5 ± 1.4
